This is an account of results in publication PMC9571290, “Preliminary Structure–Activity Relationship Study of the MMV Pathogen Box Compound MMV675968 (2,4-Diaminoquinazoline) Unveils Novel Inhibitors of Trypanosoma brucei brucei” (Molecules, 2022).

Where two headings read alike, the source gives them in different places.

Series [1] concerns Cryptosporidium parvum-I DHFR. Set-up: method as in PMID 11709300. The note with it: in vitro; cited from earlier work.
The nature of a further series: in vitro. The conditions noted are these: African green monkey.
The subject of series [2] is bloodstream forms of Trypanosoma brucei brucei. Kind of series: resazurin-based antitrypanosomal inhibition assay. It is filed as cell-based. (Alamar Blue is a resazurin reagent that responds to reducing activity.)
Another series relates to P. falciparum. Further details: method as in PMID 28674055. The conditions noted are these: cited from earlier work.
For series [3], the system named is DHFR. Further details: method as in PMID 7799402. The conditions noted are these: read-out: IC50 DHFR Toxoplasma gondii; cited from earlier work.
In series [4] the test system is DHFR. Further details: method as in PMID 7799402. The note with it: read-out: IC50 DHFR Pneumocystis carinii; cited from earlier work.
A further series relates to Toxoplasma gondii. Set-up: method as in PMID 29133550. The note with it: read-out: IC50 against Toxoplasma gondii; cited from earlier work.
Another series relates to Cryptosporidium parvum. Further details: method as in PMID 11709300. The conditions noted are these: read-out: IC50 phenotypic whole parasite testing; cited from earlier work.
Another series has as its system T. b. brucei. Further details: method as in Duffy et al., 13. The note with it: ref Duffy et al., 13; read-out: IC50 against T. b. brucei; cited from earlier work.
A further series deals with Vero cells. Kind of series: cytotoxicity against Vero cells (resazurin viability assay). The conditions noted are these: read-out: CC50 Vero; Table 2.
Series [5] concerns kinetoplastids (T. brucei brucei and T. brucei rhodesiense). Set-up: method as in MMV Pathogen Box supporting information. The note with it: against kinetoplastids; ref MMV Pathogen Box supporting information; read-out: Reported IC50; cited from earlier work.

Consider `COc1ccc(OC)c(NCc2ccc3nc(N)nc(N)c3c2Cl)c1` [Analog 1, 2,4-diamino-5-chloro-6-[(2,5-dimethoxyanilino)methyl]quinazoline], for which the IC50 was 6.5 nM in [1]; 2600 nM in series [2] (Table 4, analogs of MMV675968, solid material, read-out: IC50 ± SD T. b. b.); 2800 ± 70 nM in series [2] (Trypanosoma brucei, Table 3, MMVPB compounds with known potency against other diseases, read-out: IC50 ± SD T. b. b.); 2820 nM in [2] (Trypanosoma brucei, Table 3, negative log of IC50 in molar, read-out: pIC50 T. b. b. (converted)); 2600 to 2800 nM in [2] (Trypanosoma brucei, Table 4, analogs of MMV675968, solid material, read-out: IC50 ± SD T. b. b.); 2630 nM in series [2] (Trypanosoma brucei, Table 4, negative log of IC50 in molar, read-out: pIC50 T. b. b. (converted)). In addition, the IC50 in the series on P. falciparum was 70 nM; in the series with DHFR [3], 30 nM; in the series on DHFR [4], 51 nM; in the series with Toxoplasma gondii, 20 nM; in the series on Cryptosporidium parvum, 200 nM. For the same compound, in the series “in vitro”, the CC50 at 48 h was above 100000 nM.

As to `Cc1nn(C)c(C)c1NS(=O)(=O)c1c(Cl)cc(-c2ccnc(N3CCNCC3)c2)cc1Cl` [MMV688180], the IC50 was 10 nM with T. b. brucei; 2.3 nM in [2] (Table 2, MMVPB compounds with known anti-kinetoplastid activity, read-out: IC50 ± SD T. b. b.); 2.3 nM in series [2] (given in nM, read-out: IC50 against T. b. brucei); below 130 nM in series [5]. The CC50 in the series with Vero cells is above 100000 nM. In addition, the “pIC50 T. b. b.” value in series [2] (Table 2, negative log of IC50 in molar) came out at 8.64.
